# Marks after values point to notes of the source that are not given here.
# How the values were obtained:
# [1] = Total serum iron levels in rats treated twice weekly for 93 days; type: in vivo, rat
# Procedure: Compounds were generally administered orally by gavage or IV administration. Animals treated by oral gavage received a 4-10 ml/kg volume of either 0.5% carboxymethyl cellulose (CMC; Sigma-Aldrich, St. Louis Mo.) with or without 0.1% Polysorbate 80 (0 mg/kg/day) or varying doses of a compound of the present invention (e.g., a HIF prolyl hydroxylase inhibitor) in 0.5% CMC, with or without 0.1% Polysorbate 80, using various dosing regimens. Blood samples were collected at appropriate intervals during treatment from, e.g., tail vein (rats), or abdominal vein or cardiocentesis (mice or rats). Generally, animals were anesthetized with isoflurane and blood samples were collected into MICROTAINER serum separator tubes (Becton-Dickinson, Franklin Lakes N.J.). For measurement of serum components, the tubes were incubated at room temperature for 30 minutes, and then centrifuged at 8,000 rpm at 4° C. for 10 minutes. The serum fraction was then processed and analyzed for the presence of specific components, e.g., serum iron (assay performed by Quality Clinical Labs, Mountain View, Calif.). For determination of hematocrit, blood samples were collected into MICROTAINER EDTA-2K tubes (Becton-Dickinson); EDTA-blood was then drawn into 75 mm×1.1-1.2 mm I.D. capillary tubes (Chase Scientific Glass, Inc., Rockwood Tenn.) to approximately % length, one end of the tube was sealed with CRITOSEAL sealant (Sherwood Medical Company), and the tubes were centrifuged in a J-503M MICROHEMATOCRIT centrifuge (Jorgensen Laboratories, Inc., Loveland Colo.) at 12,000 rpm for 5 minutes. Hematocrit was read against a reader card. When indicated, complete blood count (CBC) analysis, including blood hemoglobin level, reticulocyte number, and hematocrit, was performed by Quality Clinical Labs (Mountain View, Calif.).
# Male and female rats were treated twice weekly (Monday and Thursday) with various concentrations (0, 20, 60, or 150 mg/kg) of compound A for 93 days. Total serum iron levels were determined.
# rat model of ACD = assay: Rat model of ACD (PG-PS), Experimental Series 1; type: in vivo; conditions: anemic rats, 60 mg/kg PO
# Description: Anemia of chronic disease (ACD) is associated with various inflammatory conditions, including arthritis, neoplastic disease, and other disorders associated with chronic inflammation. A rat model of ACD was used to examine the effects of HIF stabilization using methods and compounds of the present invention on treating anemia associated with chronic disease. In this animal model, ACD is induced in rats by peptidoglycan-polysaccharide polymers. (See, e.g., Sartor et al. (1989) Infection and Immunity 57:1177-1185.) In this model, animals develop severe, acute anemia in the initial stages, followed by moderately severe chronic microcytic anemia in later stages.
# Female Lewis rats of approximately 160 grams were challenged with PG-PS 10S (Lee Laboratories, 15 μg/gm body weight, intra-peritoneal). PG-PS 10S contains purified peptidoglycan-polysaccharide polymers isolated from the cell wall of Streptococcus pyogenes, Group A, D58 strain. Arthritis and anemia were allowed to develop for 35 days. On day 35, blood samples (approximately 400 μl) were taken from the tail vein under general anesthesia (Isoflurane) for CBC and reticulocyte counts (performed by Quality Clinical Labs). Animals with a spun hematocrit level at or above 45% were considered non-anemic and were removed from the study.
# On day 35 following PG-PS injection, anemic animals received vehicle alone or were treated with compound A (60 mg/kg, PO) for two consecutive days per week for two weeks. Automated complete blood counts (CBC) were measured on day 35 (see above), 39, 42, and 49; serum iron levels were measured on day 49.
# VCAM-1 = assay: IL-1β induced VCAM-1 expression in HUVEC; type: cell-based, human; conditions: IL-1β 1 ng/ml, 1 day
# Procedure: To investigate the effect of HIF prolyl hydroxylase inhibition on IL-1β induced VCAM-1 expression, HUVEC (human umbilical vein endothelial cells) were stimulated with IL-1β in the absence or presence of various concentrations of compound B or compound C for 1 day. VCAM expression was then measured.
Compound,Serum Iron Female Rats (Mean +/− SD) ([1]; 20 mg/kg twice weekly),Serum Iron Female Rats (Mean +/− SD) ([1]; 60 mg/kg twice weekly),Serum Iron Female Rats (Mean +/− SD) ([1]; 150 mg/kg twice weekly) [µg/dL],Serum Iron Male Rats (Mean +/− SD) ([1]; 20 mg/kg twice weekly) [µg/dL],Serum Iron Male Rats (Mean +/− SD) ([1]; 60 mg/kg twice weekly),Serum Iron Male Rats (Mean +/− SD) ([1]; 150 mg/kg twice weekly),hematocrit levels (rat model of ACD; 5 days after initiation of treatment),hemoglobin levels (rat model of ACD; as early as 5 days (day 39)),Reticulocyte levels (rat model of ACD; day 39),hemoglobin levels (rat model of ACD; day 49),hematocrit levels (rat model of ACD; following a second dosing),red blood cell count (rat model of ACD; from day 39),"mean corpuscular volume (rat model of ACD; from day 39, vs non-treated anemic animals)",mean corpuscular hemoglobin levels (rat model of ACD; vs non-treated anemic animals),inhibition of IL-1β induced VCAM-1 expression (VCAM-1)
"O=C(O)CNC(=O)c1nc(Cl)c2ccccc2c1O [Compound A, [(1-Chloro-4-hydroxy-isoquinoline-3-carbonyl)-amino]-acetic acid]",505 +/− 41 * µg/dL,445 +/− 46 * µg/dL,399 ± 117,198 ± 64,357 +/− 111 * µg/dL,307 +/− 142 * µg/dL,approximately 37%,increased hemoglobin levels in anemic animals,approximately 10 % of red cell counts,reaching a level comparable to control non-anemic animals,approximately 40%,increased red blood cell count in anemic animals,increased mean corpuscular volume,increased mean corpuscular hemoglobin levels,–
"O=C(O)CNC(=O)c1ncc2cc(Oc3ccccc3)ccc2c1O [Compound B, [(4-Hydroxy-7-phenoxy-isoquinoline-3-carbonyl)-amino]-acetic acid]",–,–,–,–,–,–,–,–,–,–,–,–,–,–,does-dependent inhibition of IL-1β induced VCAM-1 expression
